This assay has as its target T1, thermally-denatured collagen (gelatin) films (Rattus norvegicus, UniProt P02454+P02466).
T1 construct: To make gelatin films, the same collagen solution was denatured at 70° C. for 15 minutes; purchased BD Science; host or cells: rat tail
The assay can be described thus: Photo-triggered CMP binding assay on gelatin films. Here is the method: Collagen/gelatin binding assays. Collagen solution (200 μL, 3.71 mg/mL, type I rat tail, BD Science) in 0.02 N acetic acid was added to each well of a 96-well black/clear-bottom plate (Costar) and air-dried. To make gelatin films, the same collagen solution was denatured at 70° C. for 15 minutes before applying to the well. The dried films were neutralized and washed with 1×PBS buffer (pH 7.4) and deionized water. PBS solution of carboxyfluorescein-labeled caged CMP (40 μL, 50 μM, unless indicated otherwise) pre-equilibrated at 4° C. was added onto each reconstituted collagen or gelatin film and exposed to 365 nm UV light (10 mW/cm^2, from mercury arc lamp) for 11 minutes on ice. Wells for the UV-negative control groups were covered with aluminum foil to block UV exposure. After incubation at 4° C. for over 3 hours (unless indicated otherwise), the unbound materials were removed by rinsing with PBS buffer and deionized water. The films were allowed to dry in dark, after which the fluorescence (ex: 489 nm, em: 533 nm) was measured with a SpectraMax Gemini XPS microplate reader (Molecular Devices). Each binding experiment was done in triplicate.

T1 sequence (P02454 152-1207 limits assumed): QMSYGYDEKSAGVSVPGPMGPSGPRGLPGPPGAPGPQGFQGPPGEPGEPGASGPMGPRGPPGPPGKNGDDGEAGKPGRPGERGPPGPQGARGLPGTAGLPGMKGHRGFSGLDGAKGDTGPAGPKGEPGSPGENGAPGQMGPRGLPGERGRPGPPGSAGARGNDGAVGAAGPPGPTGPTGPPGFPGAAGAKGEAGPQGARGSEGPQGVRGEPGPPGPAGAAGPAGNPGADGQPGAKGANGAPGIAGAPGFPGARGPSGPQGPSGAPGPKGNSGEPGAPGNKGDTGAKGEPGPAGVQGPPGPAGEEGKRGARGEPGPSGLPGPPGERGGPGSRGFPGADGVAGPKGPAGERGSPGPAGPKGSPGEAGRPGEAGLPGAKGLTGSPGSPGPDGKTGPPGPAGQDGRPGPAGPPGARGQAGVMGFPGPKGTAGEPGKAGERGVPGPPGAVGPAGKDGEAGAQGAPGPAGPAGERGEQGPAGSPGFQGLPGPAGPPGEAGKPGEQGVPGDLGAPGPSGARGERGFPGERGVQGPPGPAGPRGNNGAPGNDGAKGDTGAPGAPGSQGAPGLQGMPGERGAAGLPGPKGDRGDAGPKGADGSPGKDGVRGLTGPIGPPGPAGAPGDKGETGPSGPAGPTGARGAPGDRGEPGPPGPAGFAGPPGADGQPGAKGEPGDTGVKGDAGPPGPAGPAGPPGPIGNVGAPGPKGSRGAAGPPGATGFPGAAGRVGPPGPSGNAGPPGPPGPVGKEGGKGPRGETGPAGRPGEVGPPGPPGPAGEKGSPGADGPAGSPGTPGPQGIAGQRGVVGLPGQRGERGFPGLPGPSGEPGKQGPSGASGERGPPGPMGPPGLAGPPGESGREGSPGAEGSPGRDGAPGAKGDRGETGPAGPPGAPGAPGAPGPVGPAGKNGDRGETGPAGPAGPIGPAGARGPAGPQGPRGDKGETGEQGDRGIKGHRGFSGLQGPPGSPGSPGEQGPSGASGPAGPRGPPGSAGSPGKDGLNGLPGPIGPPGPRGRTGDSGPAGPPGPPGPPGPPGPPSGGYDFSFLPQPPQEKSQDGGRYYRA
T1 sequence (P02466 86-1125 limits assumed): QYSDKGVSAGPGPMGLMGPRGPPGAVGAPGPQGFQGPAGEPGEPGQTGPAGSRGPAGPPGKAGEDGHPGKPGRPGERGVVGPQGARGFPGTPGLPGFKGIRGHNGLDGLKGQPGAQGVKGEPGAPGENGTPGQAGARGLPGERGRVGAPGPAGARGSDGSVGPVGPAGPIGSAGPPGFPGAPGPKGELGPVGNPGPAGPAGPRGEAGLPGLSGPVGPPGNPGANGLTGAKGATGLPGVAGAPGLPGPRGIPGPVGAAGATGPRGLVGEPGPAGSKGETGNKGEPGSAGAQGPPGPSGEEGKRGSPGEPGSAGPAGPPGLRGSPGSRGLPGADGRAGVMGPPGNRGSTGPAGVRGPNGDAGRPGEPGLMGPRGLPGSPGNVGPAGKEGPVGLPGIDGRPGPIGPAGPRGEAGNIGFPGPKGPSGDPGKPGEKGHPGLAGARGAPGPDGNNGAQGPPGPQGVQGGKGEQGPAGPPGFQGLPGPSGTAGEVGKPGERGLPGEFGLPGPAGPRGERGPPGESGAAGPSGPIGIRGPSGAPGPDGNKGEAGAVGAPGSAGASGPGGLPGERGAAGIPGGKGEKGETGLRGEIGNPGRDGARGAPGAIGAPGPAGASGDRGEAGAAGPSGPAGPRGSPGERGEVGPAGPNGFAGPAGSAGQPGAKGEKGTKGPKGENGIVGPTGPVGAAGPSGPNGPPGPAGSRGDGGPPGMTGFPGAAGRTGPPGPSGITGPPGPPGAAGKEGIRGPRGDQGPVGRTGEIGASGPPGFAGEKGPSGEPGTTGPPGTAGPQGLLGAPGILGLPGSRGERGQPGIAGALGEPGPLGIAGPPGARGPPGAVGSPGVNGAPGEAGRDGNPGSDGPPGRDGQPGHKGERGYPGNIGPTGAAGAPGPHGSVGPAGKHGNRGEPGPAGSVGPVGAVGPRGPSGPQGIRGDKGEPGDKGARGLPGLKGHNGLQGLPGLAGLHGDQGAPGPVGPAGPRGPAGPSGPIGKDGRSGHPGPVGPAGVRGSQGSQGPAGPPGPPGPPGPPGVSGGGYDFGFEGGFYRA

Take CF-GGG-(GPO)4^NBGPO(GPO)4 [CF^NB(GPO)9]: the “binding (fluorescence intensity of film)” value (caged, UV−) was “negligible”. The “level of binding on gelatin relative to collagen” value (photo-activated (UV+)) was “an order of magnitude higher”.

Values taken from patent US10426850B2, “Collagen mimetic peptides for targeting collagen strands for in vitro and in vivo imaging and therapeutic use” (The Johns Hopkins University, priority 2011, dated 2019).
